Patent US20100190846A1, “MICROBICIDAL AGENT AND MICROBICIDAL COMPOSITION” (priority 2006, published 2010)
Entries after “also recorded” stand apart in the source; their conditions may differ.

Columns and labels:
[1] = Solubility in DMSO observed during sample preparation; format: physicochemical; conditions: 30% DMSO; 40% DMSO used instead
Procedure: First, 400 mg of sample was dissolved in 1 mL of DMSO to prepare 400 mg/mL sample solution. Then 0.5 mL of this 400 mg/mL sample solution was diluted 2-fold to prepare 200 mg/mL sample solution. In the same manner, sample solutions of 100 mg/mL, 50.0 mg/mL, and 25.0 mg/mL were prepared. In addition, 300 mg/mL sample solution was prepared. Thereafter, 0.2 mL of these sample solutions each was mixed with 19.8 mL of BHI (Brain Heart Infusion Agar, Becton Dickinson, MD) medium, thereby preparing agar plates having the sample concentration of 4.0 mg/mL, 3.0 mg/mL, 2.0 mg/mL, 1.0 mg/mL, 0.5 mg/mL, and 0.25 mg/mL in dishes. […] Sterilized water was used for dissolving catechin, because catechin was insoluble in DMSO.
First, 4 mg of 5,7,4′-trihydroxy-3′,5′-dimethoxyflavone sample was dissolved in 200 μL to prepare 20 mg/mL sample solution. To 100 μL of this 20 mg/mL sample solution, 100 μL of sterilized water was added to prepare 200 μL of 10 mg/mL sample solution. To the solution, 60 μL DMSO and 140 μL of sterilized water were added to prepare 400 μL of 5.0 mg/mL sample solution. DMSO was used in the concentration of 40%, because the sample precipitated from 30% DMSO. To 350 μL of 5.0 mg/mL sample solution, 140 μL DMSO and 210 μL of sterilized water were added to prepare 700 μL of 2.5 mg/mL sample solution. In the same manner, 1.25 mg/mL and 0.625 mg/mL sample solutions were prepared. […]

Salmonella sp. = assay: Paper disk method microbicidal test; format: cell-based; conditions: for size of the inhibition ring: 0 mg/mL control: 12.35 (flavone, 40% DMSO), — (catechin)
Procedure: (§1) As microbicidal test method for 5,7,4′-trihydroxy-3′,5′-dimethoxyflavone, the paper disk method was employed, by which method the microbicidal activity can be judged even in cases where a solvent has some influences.
(§2) In paper disk method, sample solutions having various sample concentration are prepared, and the sample solution was absorbed in a special paper disk, followed by drying the paper disk. Onto the plate which is made by mixing a prepared bacterial suspension with agar medium, the paper disks are placed. If the sample has a microbicidal activity, the inhibition ring which indicates the inhibition of bacterial growth is formed such that the center of the ring is coincident with the paper disk. The degree of a microbicidal activity is judged based on the size of the inhibition ring.
(§3) First, 4 mg of 5,7,4′-trihydroxy-3′,5′-dimethoxyflavone sample was dissolved in 200 μL to prepare 20 mg/mL sample solution. To 100 μL of this 20 mg/mL sample solution, 100 μL of sterilized water was added to prepare 200 μL of 10 mg/mL sample solution. To the solution, 60 μL DMSO and 140 μL of sterilized water were added to prepare 400 μL of 5.0 mg/mL sample solution. DMSO was used in the concentration of 40%, because the sample precipitated from 30% DMSO. To 350 μL of 5.0 mg/mL sample solution, 140 μL DMSO and 210 μL of sterilized water were added to prepare 700 μL of 2.5 mg/mL sample solution. In the same manner, 1.25 mg/mL and 0.625 mg/mL sample solutions were prepared. As a control, a solution containing 40% DMSO and 60% sterilized water was prepared. […] In a paper disk (8.12 mm diameter), 70 μL of these solutions each was absorbed, and the paper disks were dried for a day.
(§4) As test bacteria, Staphylococcus aureus, Salmonella sp., Yersinia enterocolitica, Pseudomonas aeruginosa, and Candida sp. were used. These bacteria were mixed with 2 mL of sterilized water to prepare bacterial suspensions having turbidity 1 (10^8/mL). The plate agar was made by mixing 0.2 mL of the bacterial suspension with 19.8 mL of BHI medium. The dried paper disk was placed onto the plate agar, and the plate was incubated in an incubator at 37° C., followed by assessing the activity. In the Table, (-) represents that no microbicidal activity was observed.

Pseudomonas aeruginosa = assay: Paper disk method microbicidal test; format: cell-based; conditions: for size of the inhibition ring: 0 mg/mL control: 12.33 (flavone, 40% DMSO), — (catechin)
Procedure: as §1, §2, §3, §4

Candida sp. = assay: Paper disk method microbicidal test; format: cell-based; conditions: 0 mg/mL control: 11.86 (flavone, 40% DMSO), — (catechin)
Procedure: as §1, §2, §3, §4

Yersinia enterocolitica = assay: Paper disk method microbicidal test; format: cell-based; conditions: 0 mg/mL control: 15.65 (flavone, 40% DMSO), — (catechin)
Procedure: as §1, §2, §3, §4

[2] = 0.625 mg/mL solution on 8.12 mm paper disk
[3] = 1.25 mg/mL solution on 8.12 mm paper disk
[4] = 2.5 mg/mL solution on 8.12 mm paper disk

Compound: COc1cc(-c2cc(=O)c3c(O)cc(O)cc3o2)cc(OC)c1O [5,7,4′-Trihydroxy-3′,5′-Dimethoxyflavone, 5,7,4′-trihydroxy-3′,5′-dimethoxyflavone]
- solubility in aqueous DMSO [1]: precipitated
- size of the inhibition ring (Salmonella sp.; [2]): 12.35
- size of the inhibition ring (Salmonella sp.; [3]): 13.82
- size of the inhibition ring (Salmonella sp.; [4]): 16.65
- microbicidal activity (in words) (Salmonella sp.; paper disk method): had a microbicidal activity; also recorded: very strong even compared to catechin
- size of the inhibition ring (Pseudomonas aeruginosa; [2]): 15.46
- size of the inhibition ring (Pseudomonas aeruginosa; [3]): 18.54
- size of the inhibition ring (Pseudomonas aeruginosa; [4]): 19.20
- microbicidal activity (in words) (Pseudomonas aeruginosa; paper disk method): had a microbicidal activity; also recorded: very strong even compared to catechin
- size of the inhibition ring (Candida sp.; [2]): 11.86
- size of the inhibition ring (Candida sp.; [3]): 12.30
- size of the inhibition ring (Candida sp.; [4]): 11.90
- size of the inhibition ring (Yersinia enterocolitica; [2]): 15.67
- size of the inhibition ring (Yersinia enterocolitica; [3]): 15.76
- size of the inhibition ring (Yersinia enterocolitica; [4]): 15.76
